This is an account of results in US12150995B2, “IRAK degraders and uses thereof” (Kymera Therapeutics, Inc., priority 2020, dated 2024).

The target in the test is T1, IRAK4 (Homo sapiens, UniProt Q9NWZ3).
T1 construct: endogenous in cells; host or cells: OCI-LY10
T1 sequence (Q9NWZ3 1-460): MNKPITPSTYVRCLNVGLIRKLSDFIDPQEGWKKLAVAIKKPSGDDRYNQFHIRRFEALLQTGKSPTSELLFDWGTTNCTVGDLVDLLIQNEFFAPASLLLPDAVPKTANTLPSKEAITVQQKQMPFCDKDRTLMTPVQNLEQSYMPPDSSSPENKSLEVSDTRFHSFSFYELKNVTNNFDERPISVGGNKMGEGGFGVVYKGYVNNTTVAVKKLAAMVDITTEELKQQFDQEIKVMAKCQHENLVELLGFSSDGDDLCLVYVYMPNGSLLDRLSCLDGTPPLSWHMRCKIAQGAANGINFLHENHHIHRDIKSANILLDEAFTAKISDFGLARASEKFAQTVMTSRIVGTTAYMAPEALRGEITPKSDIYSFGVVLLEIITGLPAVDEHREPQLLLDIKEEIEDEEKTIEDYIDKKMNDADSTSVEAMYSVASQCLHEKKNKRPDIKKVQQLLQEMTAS
The test can be described thus: IRAK4 MSD Degradation in OCI-LY10. Type of test: cell-based. To be noted: OCI-LY10 cells, Meso Scale Discovery, incubated 4 to 24 hours. As to the method: Degradation of IRAK4 in OCI-LY10 was quantitatively measured using Meso Scale Discovery technology. OCI-LY10 cells were seeded in 96-well plates (Corning 3799) with a density of 300,000 cells per well in 100 μL fresh media. Compounds were then added to the assay plates with a final top concentration of 1 to 10 μM in a 1:3 dilution series with total of 8 doses. The assay plates were then incubated for 4 to 24 hours at 37° C. under 5% CO2. The assay plates were then centrifuged for 5 minutes and the cell pellets were treated with 100 μL/well RIPA lysis buffer (Boston BioProducts BP-115D) with proteinase inhibitors. To prepare MSD assay plates (Meso Scale Discovery Catalog number L15XA-3), the plates were coated with 2 μg/mL capture antibody (mouse Anti-IRAK4 antibody [2H9], ab119942) in PBS, at 40 μL/well. The plates were then incubated overnight at 4° C., washed 3 times with 150 μL/well TBST buffer (Cell Signaling Technology, Catalog number 9997S) and blocked with 150 μL/well blocking buffer (Meso Scale Discovery Catalog number R93BA-4). Cell lysates were then added to MSD assay plates and the plates were incubated at room temperature for 1 hour. The plates were then washed 3 times with 150 μL/well TBST buffer and […] primary detection antibody (rabbit Anti-IRAK4 antibody [Y279], from Abcam. Catalog number ab32511, 1 μg/mL). The assay plates were then incubated at room temperature for 1 hour, washed 3 times with 150 μL/well TBST buffer and 254/well secondary detection antibody, SULFO-TAG anti-rabbit antibody were added (anti rabbit antibody from Meso Scale Discovery, Catalog number R32AB-1, 1 μg/mL). The assay plates were then incubated at room temperature for 1 hour, washed 3 times with 150 μL/well TBST buffer, and 150 μL/well MSD reading buffer (Meso Scale Discovery catalog number R92TC-2) was added. The plates were then analyzed by a MSD reader (Meso Scale Discovery, Model Quick Plex SQ 120). The data was then analyzed by software Prism 7.0 from GraphPad and the dose-depended IRAK4 degradation were fit using a three-parameter logistic equation to calculate DC50.
The letter codes for IRAK4 DC50 include: A (<0.01 μM); B (0.01-0.05 μM); C (0.05-0.1 μM); D (0.1-0.2 μM); and E (>0.2 μM).

One may read the DC50 as the concentration at which degradation of the target reaches its halfway point. A low value points to a more potent degrader.

For the compound `O=C1CCN(c2cncc3c(C4CCN(C[C@H]5CC[C@H](c6nc7ccc(NC(=O)c8cccc(C(F)(F)F)n8)cc7s6)CC5)CC4)cccc23)C(=O)N1` [I-201], the DC50 was above 200 nM. As to `CC(C)Nc1cc(-c2ccc3cc(C#N)cnn23)ncc1C(=O)N[C@H]1CC[C@H](CN2CCC(c3cccc4c(N5CCC(=O)NC5=O)cncc34)CC2)CC1` [I-184], the DC50 was below 10 nM. Then `CC(C)Nc1cc(-n2ccc3cc(C#N)cnc32)ncc1C(=O)NC[C@H]1CC[C@H](CN(C)C2CCN(c3cccc4c3n(C)c(=O)n4C3CCC(=O)NC3=O)CC2)CC1` (some centres unmarked) [I-105], with 50 to 100 nM. As for `COc1cc2nn([C@H]3CC[C@H](CN4CCC(c5cccc6c(N7CCC(=O)NC7=O)cncc56)CC4)CC3)cc2cc1NC(=O)c1cccc(C(F)(F)F)n1` [I-97], the DC50 was below 10 nM. In turn, `C[C@@H]1CN(c2cccc3c2n(C)c(=O)n3C2CCC(=O)NC2=O)CCN1C[C@H]1CC[C@H](n2cc3cc(NC(=O)c4cccc(C(F)(F)F)n4)c(C(C)(C)O)cc3n2)CC1` (some centres unmarked) [I-226] registered a DC50 below 10 nM. Consider `CC(C)(O)c1cc2nn([C@H]3CC[C@H](CN4CCN(c5cccc6c(N7CCC(=O)NC7=O)cncc56)CC4)CC3)cc2cc1NC(=O)c1cccc(C(F)(F)F)n1` [I-224], for which the DC50 was below 10 nM. Consider `CC(C)Nc1cc(-n2ccc3cc(F)cnc32)ncc1C(=O)N[C@H]1CC[C@H](CN2CCN(c3ccc4c(c3)n(C)c(=O)n4C3CCC(=O)NC3=O)CC2)CC1` (some centres unmarked) [I-267], for which the DC50 is above 200 nM.

Regarding `CN(CCNc1cccc2c1C(=O)N(C1CCC(=O)NC1=O)C2=O)C[C@H]1CC[C@H](c2nc3cc(C(C)(C)O)c(NC(=O)c4cccc(C(F)(F)F)n4)cc3s2)CC1` (some centres unmarked) [I-492], the DC50 was in the range of 10 to 50 nM.

The compound `COc1cc2nn([C@H]3CC[C@H](CN4CCN(c5cccc6c(N7CCC(=O)NC7=O)cncc56)[C@@H](C)C4)CC3)cc2cc1NC(=O)c1cccc(C(F)(F)F)n1` [I-233] returned a DC50 below 10 nM. The compound `COc1cc2nc([C@H]3CC[C@H](CN4CCC(c5cccc6c(N7CCC(=O)NC7=O)cncc56)CC4)CC3)sc2cc1NC(=O)c1cccc(C(F)(F)F)n1` [I-191] showed a DC50 of 10 to 50 nM. In the case of `Cc1ccc2c(c1C1CCN(C[C@H]3CC[C@H](n4cc5cc(NC(=O)c6cccc(C(F)(F)F)n6)ncc5n4)CC3)CC1)n(C)c(=O)n2C1CCC(=O)NC1=O` (some centres unmarked) [I-102] it was below 10 nM. In turn, `COc1cc2nn(CCN(C)C3CCN(c4cccc5c4n(C)c(=O)n5C4CCC(=O)NC4=O)CC3)cc2cc1NC(=O)c1cccc(C(F)(F)F)n1` (centres unmarked) [I-20, N-[2-[2-[[1-[1-(2,6-dioxo-3-piperidyl)-3-methyl-2-oxo-benzimidazol-4-yl]-4-piperidyl]-methyl-amino]ethyl]-6-methoxy-indazol-5-yl]-6-(trifluoromethyl)pyridine-2-carboxamide] had a DC50 above 200 nM. Compound `Cn1c(=O)n(C2CCC(=O)NC2=O)c2cccc(N3CCN(C[C@H]4CC[C@H](n5cc6cc(NC(=O)c7cccc(C(F)(F)F)n7)c(N7C[C@H]8C[C@@H]7CO8)cc6n5)CC4)CC3)c21` (some centres unmarked) [I-384] showed a DC50 below 10 nM.

In turn, `Cn1c(=O)n(C2CCC(=O)NC2=O)c2cccc(N3CCCN(C[C@H]4CC[C@H](n5cc6cc(NC(=O)c7cccc(C(F)(F)F)n7)ccc6n5)CC4)CC3)c21` (some centres unmarked) [I-328] registered a DC50 of 10 to 50 nM. Take `COc1cc2nn([C@H]3CC[C@H](CN(C)[C@H]4CC[C@H](c5cccc6c5n(C)c(=O)n6C5CCC(=O)NC5=O)CC4)CC3)cc2cc1NC(=O)c1cccc(C(F)(F)F)n1` (some centres unmarked) [I-5, N-[2-[4-[[[4-[1-(2,6-dioxo-3-piperidyl)-3-methyl-2-oxo-benzimidazol-4-yl]cyclohexyl]-methyl-amino]methyl]cyclohexyl]-6-methoxy-indazol-5-yl]-6-(trifluoromethyl)pyridine-2-carboxamide]: the DC50 was below 10 nM. `COc1cc2nn([C@H]3CC[C@H](CN4CCCN(c5cccc6c(N7CCC(=O)NC7=O)cncc56)CC4)CC3)cc2cc1NC(=O)c1cncc(C#N)c1` [I-289]: the DC50 is above 200 nM.

For the compound `COc1cc2nn([C@H]3CC[C@H](CN4C5CCC4CN(c4cccc6c(N7CCC(=O)NC7=O)cncc46)C5)CC3)cc2cc1NC(=O)c1cccc(C(F)(F)F)n1` [I-219], the DC50 was below 10 nM. On to `COc1ccc2c(c1C1CCN(C[C@H]3CC[C@H](n4cc5cc(NC(=O)c6cccc(C(F)(F)F)n6)ncc5n4)CC3)CC1)n(C)c(=O)n2[C@@H]1CCC(=O)NC1=O` (single isomer, unassigned) [I-274], for which the DC50 fell in the range of 10 to 50 nM. Take `COc1cc2nc([C@H]3CC[C@H](CN(C)CCCNc4cccc5c4C(=O)N(C4CCC(=O)NC4=O)C5=O)CC3)sc2cc1NC(=O)c1cncc(C)c1` (some centres unmarked) [I-459]: the DC50 is above 200 nM. For `COc1cc2nn([C@H]3CC[C@H](CN4CCC(c5ccc6c(c5C)n(C)c(=O)n6C5CCC(=O)NC5=O)CC4)CC3)cc2cc1NC(=O)c1cccc(C(F)(F)F)n1` (some centres unmarked) [I-173], the DC50 is below 10 nM.

The compound `COc1cc2nn([C@H]3CC[C@H](CN(C)C4CCN(c5cccc6c5n(C)c(=O)n6C5CCC(=O)NC5=O)CC4)CC3)cc2cc1NC(=O)c1cncc(C(F)(F)F)c1` (some centres unmarked) [I-130] gave a DC50 below 10 nM.

In turn, `CC(C)(O)c1cc2nc([C@H]3CC[C@H](C(=O)N4CC5(CC(CCNc6cccc7c6C(=O)N(C6CCC(=O)NC6=O)C7=O)C5)C4)CC3)sc2cc1NC(=O)c1cccc(C#N)n1` (some centres unmarked) [I-436] yielded a DC50 of 50 to 100 nM. On to `COc1ccc2c(c1C1CCN(C[C@H]3CC[C@H](n4cc5cc(NC(=O)c6cccc(C(F)(F)F)n6)ncc5n4)CC3)CC1)n(C)c(=O)n2C1CCC(=O)NC1=O` (stereo partly drawn) [I-104, N-[2-[4-[[4-[1-[(3S)-2,6-dioxo-3-piperidyl]-5-methoxy-3-methyl-2-oxo-benzimidazol-4-yl]-1-piperidyl]methyl]cyclohexyl]pyrazolo[3,4-c]pyridin-5-yl]-6-(trifluoromethyl)pyridine-2-carboxamide], for which the DC50 was below 10 nM. On to `Cn1c(=O)n(C2CCC(=O)NC2=O)c2cccc(C3CCN(C[C@H]4CC[C@H](n5cc6cc(NC(=O)c7cccc(C(F)(F)F)c7F)ccc6n5)CC4)CC3)c21` (some centres unmarked) [I-214], for which the DC50 is below 10 nM. `Cn1c(=O)n(C2CCC(=O)NC2=O)c2cccc(N3CC4CC(C3)N4C[C@H]3CC[C@@H](n4cc5cc(NC(=O)c6cccc(C(F)(F)F)n6)ccc5n4)CC3)c21` (single isomer, unassigned) [I-156, N-[2-[4-[[3-[1-(2,6-dioxo-3-piperidyl)-3-methyl-2-oxo-benzimidazol-4-yl]-3,6-diazabicyclo[3.1.1]heptan-6-yl]methyl]cyclohexyl]indazol-5-yl]-6-(trifluoromethyl)pyridine-2-carboxamide] came in with a DC50 above 200 nM.

In turn, `COc1cc2nn([C@H]3CC[C@H](CN4CCC5(CC4)CC(CCNc4cccc6c4C(=O)N(C4CCC(=O)NC4=O)C6=O)C5)CC3)cc2cc1NC(=O)c1cccc(C(F)(F)F)n1` (some centres unmarked) [I-9] yielded a DC50 of 50 to 100 nM. For `COc1cc2nn([C@H]3CC[C@H](CN4CCC(c5c(OC)ccc6c5n(C)c(=O)n6C5CCC(=O)NC5=O)CC4)CC3)cc2cc1NC(=O)c1cncc(C#N)c1` (some centres unmarked) [I-195], the DC50 lay in the range of 10 to 50 nM. On to `COc1cc2nn([C@H]3CC[C@H](CN4CCC(c5ccc6c(N7CCC(=O)NC7=O)cncc6c5)CC4)CC3)cc2cc1NC(=O)c1cccc(C(F)(F)F)n1` [I-322], for which the DC50 is below 10 nM. In turn, `O=C1CCN(c2cncc3c(C4CCN(C[C@H]5CC[C@H](n6cc7cc(NC(=O)c8cccc(C(F)(F)F)n8)c(Cl)cc7n6)CC5)CC4)cccc23)C(=O)N1` [I-370] had a DC50 of 10 to 50 nM.

Turning to `Cn1c(=O)n(C2CCC(=O)NC2=O)c2ccc(F)c(C3CCN(C[C@H]4C[C@H](n5cc6cc(NC(=O)c7cccc(C(F)(F)F)n7)c(Cl)cc6n5)C4)CC3)c21` (some centres unmarked) [I-142], the DC50 lay within 10 to 50 nM.

`O=C1CCN(c2cncc3cc(N4CCN(C[C@H]5CC[C@H](n6cc7cc(NC(=O)c8cccc(C(F)(F)F)n8)c(C(F)F)cc7n6)CC5)CC4)ccc23)C(=O)N1` [I-375] showed a DC50 of 10 to 50 nM. Compound `COc1ccc2c(c1C1CCN(C[C@H]3CC[C@H](n4cc5cc(NC(=O)c6cccc(C(F)(F)F)n6)ccc5n4)CC3)CC1)n(C)c(=O)n2C1CCC(=O)NC1=O` (some centres unmarked) [I-75] registered a DC50 of 10 to 50 nM.
